Data: patent publication US20170022171A1, “2,5-DISUBSTITUTED CYCLOPENTANECARBOXYLIC ACIDS AND THEIR USE” (Bayer Pharma Aktiengesellschaft, priority 2014, published 2017)

Tests used:
Format in all cases: biochemical
MMP-14 = molecular target: T1, MMP-14 (Homo sapiens, UniProt P50281); assay: In vitro MMP-14 inhibition test
T1 construct: purchased R&D Systems 918-MP
Description: (§1) The MMP-mediated amidolytic cleavage of a suitable peptide substrate leads to an increase in fluorescent light here too. The signal intensity of the fluorescent light is directly proportional to the enzyme activity. The active concentration of a test compound at which half the enzyme is inhibited (50% signal intensity of the fluorescent light) is reported as the IC50 value.
Recombinant MMP-14 (from R&D Systems, 918-MP) is enzymatically activated in accordance with the manufacturer's instructions using recombinant furin (from R&D Systems, 1503-SE). 1 μl of the test compound to be analysed (as a solution in DMSO, suitable concentrations e.g. 1 nM to 30 μM) is pipetted into 24 μl of activated enzyme (final concentration e.g. 0.5 nM) in reaction buffer (50 mM Tris/HCl pH 7.5, 10 mM CaCl2, 150 mM NaCl, 0.05% Brij®-35) in a white 384-hole microtiter plate (MTP). The enzymatic reaction is started by adding the intramolecularly quenched Mca-Lys-Pro-Leu-Gly-Leu-Dpa(Dnp)-Ala-Arg-NH2 substrate (final concentration, for example, 5 μM; R&D Systems, ES-010), so as to result in a total test volume of 50 The course of the MMP-14 reaction is measured by measuring the fluorescence intensity (excitation 320 nm, emission 410 nm) over a suitable period of time (for example over 120 min at a temperature of 32° C.).

[1] = molecular target: T2, human macrophage elastase (HME/hMMP-12) (Homo sapiens, UniProt P39900); assay: In vitro HME inhibition test (standard or high-sensitivity); settings: in some cases mean values
T2 construct: 0.5 nM HME; purchased R&D Systems 917-MP
In short: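 Fluorogenic assay: 0.5 nM autoactivated HME with 5 µM Mca-Pro-Leu-Gly-Leu-Glu-Glu-Ala-Dap(Dnp)-NH2 in HEPES pH 7.4 buffer (NaCl, CaCl2, ZnCl2, EDTA, Brij), 2 h at 37 °C; ex 323/em 393 nm. IC50 from fluorescence versus concentration. High-sensitivity format: ~0.05 nM enzyme, ~16 h incubation.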

mouse MMP-12 = molecular target: T3, mouse MMP-12 (Mus musculus, UniProt P34960); assay: In vitro mouse MMP-12 inhibition test (standard or high-sensitivity)
T3 construct: purchased R&D Systems 3467-MP
Description: as §1
Recombinant mouse MMP-12 (from R&D Systems, 3467-MP) is autocatalytically activated in accordance with the manufacturer's instructions. 1 μl of the test compound to be analysed (as a solution in DMSO, suitable concentrations, for example, 1 nM to 30 μM) is pipetted into 24 μl of activated enzyme (final concentration, for example, 1 nM) in reaction buffer (50 mM Tris/HCl pH 7.5, 10 mM CaCl2, 150 mM NaCl, 0.05% Brij®-35) in a white 384-hole microtiter plate (MTP). The enzymatic reaction is started by adding the intramolecularly quenched Mca-Lys-Pro-Leu-Gly-Leu-Dpa(Dnp)-Ala-Arg-NH2 substrate (final concentration, for example, 5 μM; R&D Systems, ES-010), so as to result in a total test volume of 50 The course of the MMP-12 reaction is measured by measuring the fluorescence intensity (excitation 320 nm, emission 410 nm) over a suitable period of time (for example over 120 min at a temperature of 32° C.).
In this case, an enzyme concentration ten times lower is used (final concentration, for example, 0.1 nM) in order to achieve an elevated test sensitivity. The incubation period chosen for the test is correspondingly longer (for example 16 hours).

MMP-7 = molecular target: T4, MMP-7 (Homo sapiens, UniProt P09237); assay: In vitro MMP-7 inhibition test
T4 construct: purchased R&D Systems 907-MP
T4 sequence (P09237 95-267): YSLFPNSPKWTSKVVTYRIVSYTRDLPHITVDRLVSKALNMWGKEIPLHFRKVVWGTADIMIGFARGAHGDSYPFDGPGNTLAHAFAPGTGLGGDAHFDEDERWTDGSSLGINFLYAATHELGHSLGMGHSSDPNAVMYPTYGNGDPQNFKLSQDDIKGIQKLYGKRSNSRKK
Description: as §1
Recombinant MMP-7 (from R&D Systems, 907-MP) is chemically activated in accordance with the manufacturer's instructions using APMA. 1 μl of the test compound to be analysed (as a solution in DMSO, suitable concentrations, for example, 1 nM to 30 μM) is pipetted into 24 μl of activated enzyme (final concentration, for example, 0.5 nM) in reaction buffer (50 mM Tris/HCl pH 7.5, 10 mM CaCl2, 150 mM NaCl, 0.05% Brij®-35) in a white 384-hole microtiter plate (MTP). The enzymatic reaction is started by adding the intramolecularly quenched Mca-Pro-Leu-Gly-Leu-Dpa(Dnp)-Ala-Arg-NH2 substrate (final concentration, for example, 10 μM; R&D Systems, ES-001), so as to result in a total test volume of […] The course of the MMP-7 reaction is measured by measuring the fluorescence intensity (excitation 320 nm, emission 410 nm) over a suitable period of time (for example over 120 min at a temperature of 32° C.).

T2 sequence (P39900 106-470): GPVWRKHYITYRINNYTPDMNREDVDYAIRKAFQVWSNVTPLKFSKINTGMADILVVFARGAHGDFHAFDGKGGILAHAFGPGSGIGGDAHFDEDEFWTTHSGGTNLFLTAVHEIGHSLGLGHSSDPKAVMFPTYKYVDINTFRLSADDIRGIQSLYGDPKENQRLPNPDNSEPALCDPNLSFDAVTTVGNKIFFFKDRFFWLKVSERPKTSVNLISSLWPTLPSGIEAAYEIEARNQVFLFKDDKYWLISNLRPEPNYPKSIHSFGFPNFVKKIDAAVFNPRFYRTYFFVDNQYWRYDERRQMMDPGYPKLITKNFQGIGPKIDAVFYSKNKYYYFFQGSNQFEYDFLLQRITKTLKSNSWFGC
T3 sequence (P34960 110-473): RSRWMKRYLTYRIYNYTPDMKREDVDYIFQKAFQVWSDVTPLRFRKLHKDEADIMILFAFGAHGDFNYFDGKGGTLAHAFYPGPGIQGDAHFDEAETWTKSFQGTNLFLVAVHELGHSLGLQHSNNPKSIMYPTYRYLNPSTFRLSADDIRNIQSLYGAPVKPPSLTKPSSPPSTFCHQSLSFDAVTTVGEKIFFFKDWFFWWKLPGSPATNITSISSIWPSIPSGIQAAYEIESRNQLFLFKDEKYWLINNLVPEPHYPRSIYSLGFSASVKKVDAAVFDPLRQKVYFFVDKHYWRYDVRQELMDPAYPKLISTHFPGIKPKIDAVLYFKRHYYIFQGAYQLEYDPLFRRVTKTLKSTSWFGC

Row | SMILES | IC50 (MMP-14) [nM] | IC50 [1] [nM] | IC50 (mouse MMP-12) [nM] | IC50 (MMP-7) [nM]
1 | O=C(O)[C@H]1[C@H](Cn2nnc3ccccc3c2=O)CC[C@@H]1C(=O)c1ccc(OCc2ccc(F)cc2)cc1 (racemic) [Example 1, (+/−)-(1RS,2RS,5SR)-2-{4-[(4-Fluorobenzyl)oxy]benzoyl}-5-[(4-oxo-1,2,3-benzotriazin-3(4H)-yl)methyl]cyclopentanecarboxylic acid] | 24 | 0.052 | 0.61 | 1100
2 | O=C(O)[C@H]1[C@H](Cn2nnc3ccccc3c2=O)CC[C@@H]1C(=O)c1ccc(OCc2cccc(Cl)c2)cc1 (racemic) [Example 2, (+/−)-(1RS,2RS,5SR)-2-{4-[(3-Chlorobenzyl)oxy]benzoyl}-5-[(4-oxo-1,2,3-benzotriazin-3(4H)-yl)methyl]cyclopentanecarboxylic acid] | 480 | 0.51 | 4.1 | 5300
3 | O=C(O)[C@H]1[C@H](Cn2nnc3ccccc3c2=O)CC[C@@H]1C(=O)c1ccc(OCC2CCCC2)cc1 (racemic) [Example 4, (+/−)-(1RS,2RS,5SR)-2-[4-(Cyclopentylmethoxy)benzoyl]-5-[(4-oxo-1,2,3-benzotriazin-3(4H)-yl)methyl]cyclopentanecarboxylic acid] | 33 | 0.049 | 1.4 | 2200
4 | O=C(O)[C@H]1[C@H](Cn2nnc3ccccc3c2=O)CC[C@@H]1C(=O)c1ccc(OCCC2CCCCC2)cc1 (racemic) [Example 5, (+/−)-(1RS,2RS,5SR)-2-[4-(2-Cyclohexylethoxy)benzoyl]-5-[(4-oxo-1,2,3-benzotriazin-3(4H)-yl)methyl]cyclopentanecarboxylic acid] | 620 | 0.07 | 1.8 | 2400
5 | O=C(O)[C@H]1[C@H](Cn2nnc3ccc(C(F)(F)F)cc3c2=O)CC[C@@H]1C(=O)c1ccc(OCCCC2CCCCC2)cc1 (racemic) [Example 56, (+/−)-(1RS,2RS,5SR)-2-{4-(3-Cyclohexylpropoxy)benzoyl}-5-{[4-oxo-6-(trifluoromethyl)-1,2,3-benzotriazin-3(4H)-yl]methyl}cyclopentanecarboxylic acid] | > 40000 | 0.2 | 21 | 1400
6 | Cc1ccc2nnn(C[C@@H]3CC[C@H](C(=O)c4ccc(OCc5ccccc5)cc4)[C@H]3C(=O)O)c(=O)c2c1 (racemic) [Example 91, (+/−)-(1RS,2RS,5SR)-2-[4-(Benzyloxy)benzoyl]-5-[(6-methyl-4-oxo-1,2,3-benzotriazin-3(4H)-yl)methyl]cyclopentanecarboxylic acid] | 68 | 0.074 | 0.86 | 190
7 | Cc1cccc(COc2ccc(C(=O)[C@H]3CC[C@@H](Cn4nnc5ccc(C)cc5c4=O)[C@@H]3C(=O)O)cc2)c1 (racemic) [Example 97, (+/−)-(1RS,2RS,5SR)-2-{4-[(3-Methylbenzyl)oxy]benzoyl}-5-[(6-methyl-4-oxo-1,2,3-benzotriazin-3(4H)-yl)methyl]cyclopentanecarboxylic acid] | 870 | 0.4 | 6.1 | 1500
8 | Cc1ccc2nnn(C[C@@H]3CC[C@H](C(=O)c4ccc(OCc5cccc(Cl)c5)cc4)[C@H]3C(=O)O)c(=O)c2c1 (racemic) [Example 103, (+/−)-(1RS,2RS,5SR)-2-{4-[(3-Chlorobenzyl)oxy]benzoyl}-5-[(6-methyl-4-oxo-1,2,3-benzotriazin-3(4H)-yl)methyl]cyclopentanecarboxylic acid] | 320 | 0.1 | 2.3 | 330

Second part, the compound after the results:

Row | IC50 (MMP-14) [nM] | IC50 [1] [nM] | IC50 (mouse MMP-12) [nM] | IC50 (MMP-7) [nM] | SMILES
9 | 700 | 0.055 | 7 | 4900 | O=C(O)[C@H]1[C@H](Cn2nnc3ccccc3c2=O)CC[C@@H]1C(=O)c1ccc(OCc2ccc(Cl)c(Cl)c2)cc1 (racemic) [Example 3, (+/−)-(1RS,2RS,5SR)-2-{4-[(3,4-Dichlorobenzyl)oxy]benzoyl}-5-[(4-oxo-1,2,3-benzotriazin-3(4H)-yl)methyl]cyclopentanecarboxylic acid]
10 | 150 | 0.014 | 1.8 | 87 | O=C(O)[C@H]1[C@H](Cn2nnc3ccc(C(F)(F)F)cc3c2=O)CC[C@@H]1C(=O)c1ccc(OCc2ccccc2)cc1 (racemic) [Example 11, (+/−)-(1RS,2RS,5SR)-2-[4-(Benzyloxy)benzoyl]-5-{[4-oxo-6-(trifluoromethyl)-1,2,3-benzotriazin-3(4H)-yl]methyl}cyclopentanecarboxylic acid]
11 | 6400 | 0.044 | 11 | 730 | O=C(O)[C@H]1[C@H](Cn2nnc3ccc(C(F)(F)F)cc3c2=O)CC[C@@H]1C(=O)c1ccc(OCCCc2ccccc2)cc1 (racemic) [Example 39, (+/−)-(1RS,2SR,5RS)-2-{[4-Oxo-6-(trifluoromethyl)-1,2,3-benzotriazin-3(4H)-yl]methyl}-5-[4-(3-phenylpropoxy)benzoyl]cyclopentanecarboxylic acid]
12 | 460 | 0.048 | 1.9 | 260 | O=C(O)[C@H]1[C@H](Cn2nnc3ccc(C(F)(F)F)cc3c2=O)CC[C@@H]1C(=O)c1ccc(OCC2CCCCC2)cc1 (racemic) [Example 40, (+/−)-(1RS,2RS,5SR)-2-[4-(Cyclohexylmethoxy)benzoyl]-5-{[4-oxo-6-(trifluoromethyl)-1,2,3-benzotriazin-3(4H)-yl]methyl}cyclopentanecarboxylic acid]
13 | 8700 | 0.25 | 35 | 1300 | O=C(O)[C@H]1[C@H](Cn2nnc3ccc(C(F)(F)F)cc3c2=O)CC[C@@H]1C(=O)c1ccc(SCc2ccc(Cl)c(Cl)c2)cc1 (racemic) [Example 79, (+/−)-(1RS,2RS,5SR)-2-{4-[(3,4-Dichlorobenzyl)sulphanyl]benzoyl}-5-{[4-oxo-6-(trifluoromethyl)-1,2,3-benzotriazin-3(4H)-yl]methyl}cyclopentanecarboxylic acid]
14 | 720 | 0.08 | 1.7 | 1000 | Cc1ccc2nnn(C[C@@H]3CC[C@H](C(=O)c4ccc(OCc5cccc(C(F)(F)F)c5)cc4)[C@H]3C(=O)O)c(=O)c2c1 (racemic) [Example 100, (+/−)-(1RS,2SR,5RS)-2-[(6-Methyl-4-oxo-1,2,3-benzotriazin-3(4H)-yl)methyl]-5-(4-{[3-(trifluoromethyl)benzyl]oxy}benzoyl)cyclopentanecarboxylic acid]
